The values below come from ChEMBL document CHEMBL1781988, “Quinolizidinyl derivatives of bi- and tricyclic systems as potent inhibitors of acetyl- and butyrylcholinesterase with potential in Alzheimer's disease” (Eur J Med Chem, 2011).

Cholinesterase (Equus caballus), sequence (P81908 whole entry): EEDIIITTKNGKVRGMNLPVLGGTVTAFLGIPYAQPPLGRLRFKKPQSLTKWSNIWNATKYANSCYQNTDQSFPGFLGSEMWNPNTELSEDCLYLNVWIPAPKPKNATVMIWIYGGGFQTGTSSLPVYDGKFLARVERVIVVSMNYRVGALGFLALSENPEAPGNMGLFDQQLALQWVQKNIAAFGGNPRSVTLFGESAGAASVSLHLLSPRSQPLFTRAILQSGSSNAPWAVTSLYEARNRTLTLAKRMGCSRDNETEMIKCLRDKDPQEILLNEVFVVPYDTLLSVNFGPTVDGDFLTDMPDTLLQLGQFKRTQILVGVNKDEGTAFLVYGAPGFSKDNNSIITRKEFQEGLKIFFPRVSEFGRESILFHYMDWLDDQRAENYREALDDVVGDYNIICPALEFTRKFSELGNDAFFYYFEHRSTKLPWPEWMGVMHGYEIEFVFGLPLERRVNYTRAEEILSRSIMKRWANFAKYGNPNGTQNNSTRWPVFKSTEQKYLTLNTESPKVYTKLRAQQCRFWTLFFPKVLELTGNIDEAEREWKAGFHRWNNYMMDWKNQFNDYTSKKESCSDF

The first test has as its target Cholinesterase (Equus caballus) (UniProt P81908). Nature of the test: Inhibition of Equine serum BChE using butyrylthiocholine iodide as a substrate at 10 uM after 20 mins by Ellman's assay. (DTNB colorimetry detects thiols as they appear.)
One may read the inhibition as the relative decrease from the control value, in per cent. `O=c1ccc2cc(OCCCNC[C@@H]3CCCN4CCCC[C@H]34)ccc2o1` came in with an inhibition of 40%.
Same read-out and setting: as for `O=C1Nc2cccnc2N(CSC[C@@H]2CCCN3CCCC[C@H]23)c2ccccc21`, the figure is 34%.
The same measure, in the same setting: as for `O=C1Nc2cccnc2N(C[C@@H]2CCCN3CCCC[C@H]23)c2ccccc21`, the figure is 28%.

Tested on in another test: not listed separately
Nature of the test: Selectivity index, ratio of IC50 for bovine erythrocyte AChE to IC50 for Equine serum BChE.
As for `COc1ccc2nc3cc(Cl)ccc3c(NC[C@@H]3CCCN4CCCC[C@H]34)c2c1`, the Ratio IC50 is 8.4.
Same read-out and setting: as for `O=C(CCCCSC[C@@H]1CCCN2CCCC[C@H]12)N1c2ccccc2Sc2ccccc21`, the figure is 6.4; as for `C1=Cc2ccccc2C(=C[C@@H]2CCCN3CCCC[C@H]23)c2ccccc21`, 4.1; as for `c1ccc(N(C[C@@H]2CCCN3CCCC[C@H]23)c2ccccc2)cc1`, 1.1.
Take `O=c1ccc2cc(OCCCCSC[C@@H]3CCCN4CCCC[C@H]34)ccc2o1`: the Ratio IC50 amounted to 0.28.
Still for that read-out and setting: under `C1=Cc2ccccc2N(C[C@@H]2CCCN3CCCC[C@H]23)c2ccccc21` stands 3.8.
Turning to `c1ccc2c(c1)Sc1ccccc1C2C[C@@H]1CCCN2CCCC[C@H]12`, the Ratio IC50 was 47.
Consider `N#Cc1ccc2c(c1)N(CCCN1CCC(O)CC1)c1ccccc1S2` [PERICIAZINE], for which the Ratio IC50 came out at 30.
In the case of `O=c1ccc2cc(OCCCCCSC[C@@H]3CCCN4CCCC[C@H]34)ccc2o1`, the Ratio IC50 came to 0.12.
On the same count and under the same terms, as for `c1ccc(C(C[C@@H]2CCCN3CCCC[C@H]23)c2ccccc2)cc1`, the figure is 1.2.
As to `O=c1ccc2cc(OCCCSC[C@@H]3CCCN4CCCC[C@H]34)ccc2o1`, the Ratio IC50 stood at 0.06.
Same read-out and setting: under `COc1ccc2nc3cc(Cl)ccc3c(NCCCSC[C@@H]3CCCN4CCCC[C@H]34)c2c1` stands 0.32; under `COc1ccc2nc3cc(Cl)ccc3c(NCCSC[C@@H]3CCCN4CCCC[C@H]34)c2c1`, 2.5.
The same measure, in the same setting: under `O=C(CCCSC[C@@H]1CCCN2CCCC[C@H]12)N1c2ccccc2Sc2ccccc21` stands 9.2.

The target of the next test is Muscarinic acetylcholine receptor. The test can be described thus: Inhibition of muscarinic receptor in rat brain synaptosomes. In kind it is subcellular.
Broadly, the IC50 is the point on the concentration scale where inhibition reaches its midpoint. A lower IC50 goes with higher potency. For `c1ccc2c(c1)Sc1ccccc1N2C[C@@H]1CCCN2CCCC[C@H]12` [LUPINYLPHENOTHIAZINE], the IC50 amounted to 100 nM.
The same measure, in the same setting: under `c1ccc2c(c1)Sc1ccccc1C2C[C@@H]1CCCN2CCCC[C@H]12` stands 100 nM; under `c1ccc2c(c1)Sc1ccccc1N2C1CN2CCC1CC2` (stereo unspecified), 100 nM.

The target of another test is T1, Acetylcholinesterase (Homo sapiens, UniProt P22303).
T1 sequence (P22303 whole entry): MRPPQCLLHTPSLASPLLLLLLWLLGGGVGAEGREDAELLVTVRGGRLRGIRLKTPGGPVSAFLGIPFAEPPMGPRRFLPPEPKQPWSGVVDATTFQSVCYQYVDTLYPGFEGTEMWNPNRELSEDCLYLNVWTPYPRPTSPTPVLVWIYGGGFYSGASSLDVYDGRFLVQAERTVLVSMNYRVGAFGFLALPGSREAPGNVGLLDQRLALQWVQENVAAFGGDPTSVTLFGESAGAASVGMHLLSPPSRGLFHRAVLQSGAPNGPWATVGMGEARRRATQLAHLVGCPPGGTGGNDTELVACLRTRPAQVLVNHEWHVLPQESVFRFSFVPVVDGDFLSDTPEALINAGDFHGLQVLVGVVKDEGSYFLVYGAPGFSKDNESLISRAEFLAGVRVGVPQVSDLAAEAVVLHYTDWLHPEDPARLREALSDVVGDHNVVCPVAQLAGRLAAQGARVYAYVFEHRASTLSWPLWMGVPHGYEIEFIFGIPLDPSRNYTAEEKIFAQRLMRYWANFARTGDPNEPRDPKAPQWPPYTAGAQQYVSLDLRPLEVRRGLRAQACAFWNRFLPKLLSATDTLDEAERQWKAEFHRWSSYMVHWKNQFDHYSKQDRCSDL
Description: Inhibition of human erythrocytes AChE
`CN(C)CC(C)(C)c1cccc(OC(=O)NCCCCN2CCOCC2)c1` gave an IC50 of 100000 nM.
Molecule `CC(C)c1ccc(NC(=O)Oc2ccc3c(c2)[C@]2(C)CCN(CCc4ccccc4)[C@@H]2N3C)cc1` registered an IC50 of more than 30000 nM.

The target in the next test is T1, Acetylcholinesterase. The source holds these as a separate data set.
Description: Inhibition of human plasma AChE
`CN(C)CC(C)(C)c1cccc(OC(=O)NCCCCN2CCOCC2)c1`: the IC50 amounted to 100000 nM.
Still for that read-out and setting: under `CCCCCCCNC(=O)Oc1ccc2c(c1)[C@]1(C)CCN(C)[C@@H]1N2C` [EPTASTIGMINE] stands 22000 nM; under `CC(C)c1ccc(NC(=O)Oc2ccc3c(c2)[C@]2(C)CCN(CCc4ccccc4)[C@@H]2N3C)cc1`, more than 30000 nM.

The target in the next test is Cholinesterase (Homo sapiens, UniProt P06276).
Cholinesterase (Homo sapiens, UniProt P06276), sequence (P06276 whole entry, looked up): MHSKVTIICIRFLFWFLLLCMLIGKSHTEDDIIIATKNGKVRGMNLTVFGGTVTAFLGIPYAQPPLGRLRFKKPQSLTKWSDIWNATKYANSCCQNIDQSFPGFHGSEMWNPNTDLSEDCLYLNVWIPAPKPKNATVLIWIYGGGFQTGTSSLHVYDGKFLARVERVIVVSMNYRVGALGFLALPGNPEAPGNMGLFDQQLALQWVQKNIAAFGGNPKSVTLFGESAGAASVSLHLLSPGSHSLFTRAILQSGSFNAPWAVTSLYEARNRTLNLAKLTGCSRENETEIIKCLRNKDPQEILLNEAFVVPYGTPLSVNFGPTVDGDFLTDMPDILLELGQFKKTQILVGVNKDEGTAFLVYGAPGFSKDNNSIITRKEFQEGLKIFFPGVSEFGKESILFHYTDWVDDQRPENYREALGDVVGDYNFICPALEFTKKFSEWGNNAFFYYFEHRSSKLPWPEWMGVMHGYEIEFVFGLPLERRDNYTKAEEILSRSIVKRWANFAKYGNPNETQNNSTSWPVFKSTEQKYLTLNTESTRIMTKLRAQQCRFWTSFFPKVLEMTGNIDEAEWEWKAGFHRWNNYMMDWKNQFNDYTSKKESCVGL
Description: Inhibition of human plasma BChE
In the case of `CN(C)CC(C)(C)c1cccc(OC(=O)NCCCCN2CCOCC2)c1`, the IC50 amounted to 9 nM.
Still for that read-out and setting: under `CCN(CC)C(C)CN1c2ccccc2Sc2ccccc21` (stereo unspecified) [ETHOPROPAZINE] stands 300 nM; under `CC(C)c1ccc(NC(=O)Oc2ccc3c(c2)[C@]2(C)CCN(CCc4ccccc4)[C@@H]2N3C)cc1`, 6 nM.

The next test has as its target T2, Acetylcholinesterase (Bos taurus, UniProt P23795).
T2 sequence (P23795 whole entry): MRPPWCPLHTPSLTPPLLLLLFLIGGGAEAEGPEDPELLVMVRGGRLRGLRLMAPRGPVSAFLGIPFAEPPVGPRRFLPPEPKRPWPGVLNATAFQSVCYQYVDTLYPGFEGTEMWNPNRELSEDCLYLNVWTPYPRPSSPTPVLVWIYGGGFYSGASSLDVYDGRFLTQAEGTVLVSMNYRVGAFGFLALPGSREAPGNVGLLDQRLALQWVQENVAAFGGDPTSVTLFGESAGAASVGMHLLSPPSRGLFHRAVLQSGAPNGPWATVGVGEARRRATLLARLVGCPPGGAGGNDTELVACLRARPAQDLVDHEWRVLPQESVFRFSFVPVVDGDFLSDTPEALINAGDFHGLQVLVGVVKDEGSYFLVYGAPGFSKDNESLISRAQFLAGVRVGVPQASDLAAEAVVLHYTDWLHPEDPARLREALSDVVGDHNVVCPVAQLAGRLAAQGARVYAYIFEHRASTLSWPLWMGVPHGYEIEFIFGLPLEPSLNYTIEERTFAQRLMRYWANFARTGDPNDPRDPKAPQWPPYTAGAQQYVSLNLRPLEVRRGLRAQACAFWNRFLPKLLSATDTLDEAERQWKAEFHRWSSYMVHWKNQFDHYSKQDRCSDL
Description: Inhibition of bovine erythrocyte AChE using acetylthiocholine iodide as a substrate after 20 mins by Ellman's assay
Regarding `COc1ccc2nc3cc(Cl)ccc3c(NC[C@@H]3CCCN4CCCC[C@H]34)c2c1`, the IC50 came out at 7300 nM.
On the same count and under the same terms, as for `O=C(CCCCSC[C@@H]1CCCN2CCCC[C@H]12)N1c2ccccc2Sc2ccccc21`, the figure is 5700 nM.
`O=c1ccc2cc(OCCCNC[C@@H]3CCCN4CCCC[C@H]34)ccc2o1` showed an IC50 of 6600 nM.
The same measure, in the same setting: under `C1=Cc2ccccc2C(=C[C@@H]2CCCN3CCCC[C@H]23)c2ccccc21` stands 8300 nM; under `c1ccc(N(C[C@@H]2CCCN3CCCC[C@H]23)c2ccccc2)cc1`, 8900 nM.
Still for that read-out and setting: under `O=c1ccc2cc(OCCCCSC[C@@H]3CCCN4CCCC[C@H]34)ccc2o1` stands 1200 nM; under `C1=Cc2ccccc2N(C[C@@H]2CCCN3CCCC[C@H]23)c2ccccc21`, 8300 nM.
On the same count and under the same terms, under `c1ccc2c(c1)Sc1ccccc1C2C[C@@H]1CCCN2CCCC[C@H]12` stands 7000 nM; under `N#Cc1ccc2c(c1)N(CCCN1CCC(O)CC1)c1ccccc1S2` [PERICIAZINE], 7000 nM; under `O=c1ccc2cc(OCCCCCSC[C@@H]3CCCN4CCCC[C@H]34)ccc2o1`, 680 nM.
For `c1ccc(C(C[C@@H]2CCCN3CCCC[C@H]23)c2ccccc2)cc1`, the IC50 is 6700 nM.
On the same count and under the same terms, as for `O=c1ccc2cc(OCCCSC[C@@H]3CCCN4CCCC[C@H]34)ccc2o1`, the figure is 5400 nM; as for `COc1ccc2nc3cc(Cl)ccc3c(NCCCSC[C@@H]3CCCN4CCCC[C@H]34)c2c1`, 220 nM; as for `COc1ccc2nc3cc(Cl)ccc3c(NCCSC[C@@H]3CCCN4CCCC[C@H]34)c2c1`, 840 nM.
Same read-out and setting: under `O=C(CCCSC[C@@H]1CCCN2CCCC[C@H]12)N1c2ccccc2Sc2ccccc21` stands 6800 nM.

The next test deals with Cholinesterase (Equus caballus, UniProt P81908).
Cholinesterase (Equus caballus, UniProt P81908), sequence (P81908 whole entry): as the sequence (P81908 whole entry) above
Description: Inhibition of Equine serum BChE using butyrylthiocholine iodide as a substrate after 20 mins by Ellman's assay
On to `COc1ccc2nc3cc(Cl)ccc3c(NC[C@@H]3CCCN4CCCC[C@H]34)c2c1`, for which the IC50 is 870 nM.
`O=C(CCCCSC[C@@H]1CCCN2CCCC[C@H]12)N1c2ccccc2Sc2ccccc21` gave an IC50 of 890 nM.
`COc1ccc2c(c1)N(C(=O)CSC[C@@H]1CCCN3CCCC[C@H]13)c1ccccc1S2` had an IC50 of 1200 nM.
Same read-out and setting: as for `O=C(CCSC[C@@H]1CCCN2CCCC[C@H]12)N1c2ccccc2Sc2ccccc21`, the figure is 750 nM; as for `c1ccc2c(c1)[Se]c1ccccc1N2C[C@H]1CCCN2CCCC[C@H]12`, 870 nM; as for `c1ccc2c(c1)-c1ccccc1C2C[C@@H]1CCCN2CCCC[C@H]12`, 630 nM.
On the same count and under the same terms, under `c1ccc2c(c1)c1ccccc1n2C[C@@H]1CCCN2CCCC[C@H]12` stands 2000 nM; under `C[N+]12CCCC[C@@H]1[C@H](CC1c3ccccc3Sc3ccccc31)CCC2` (stereo partly specified), 410 nM.
Still for that read-out and setting: as for `CCN(CC)C(C)CN1c2ccccc2Sc2ccccc21` (stereo unspecified) [ETHOPROPAZINE], the figure is 720 nM; as for `O=C(C[C@@H]1CCCN2CCCC[C@H]12)N1c2ccccc2Sc2ccccc21` [HOMOLUPINANOYLPHENOTHIAZINE], 3000 nM.
`C[N+]12CCCC[C@@H]1[C@H](CN1c3ccccc3Sc3ccccc31)CCC2` (stereo partly specified) gave a half-maximal inhibitory concentration (IC50) of 510 nM.
On the same count and under the same terms, as for `C1=Cc2ccccc2C(=C[C@@H]2CCCN3CCCC[C@H]23)c2ccccc21`, the figure is 2000 nM; as for `C(=C1c2ccccc2CCc2ccccc21)[C@@H]1CCCN2CCCC[C@H]12`, 4200 nM; as for `O=C(C[C@H]1CCCN2CCCC[C@H]12)N1c2ccccc2Sc2ccccc21`, 4800 nM.
`c1ccc(N(C[C@@H]2CCCN3CCCC[C@H]23)c2ccccc2)cc1` displayed an IC50 of 8100 nM.
On the same count and under the same terms, as for `CN1CCCC(CC2c3ccccc3Sc3ccccc32)C1` (stereo unspecified) [METHIXENE], the figure is 1600 nM; as for `C(=C(c1ccccc1)c1ccccc1)[C@@H]1CCCN2CCCC[C@H]12`, 3800 nM; as for `O=C(CSC[C@@H]1CCCN2CCCC[C@H]12)N1c2ccccc2Sc2ccccc21`, 430 nM.
The same measure, in the same setting: under `c1ccc2c(c1)Sc1ccccc1N2C[C@@H]1CCCN2CCCC[C@H]12` [LUPINYLPHENOTHIAZINE] stands 2000 nM; under `c1ccc2c(c1)Oc1ccccc1N2C[C@@H]1CCCN2CCCC[C@H]12`, 2200 nM.
As to `c1ccc2c(c1)[Se]c1ccccc1N2C[C@@H]1CCCN2CCCC[C@H]12`, it took 1100 nM to reach half-maximal inhibition (IC50).
Same read-out and setting: as for `O=c1ccc2cc(OCCCCSC[C@@H]3CCCN4CCCC[C@H]34)ccc2o1`, the figure is 4300 nM.
On the same count and under the same terms, under `C1=Cc2ccccc2N(C[C@@H]2CCCN3CCCC[C@H]23)c2ccccc21` stands 2200 nM; under `c1ccc2c(c1)Sc1ccccc1C2C[C@@H]1CCCN2CCCC[C@H]12`, 150 nM.
In turn, `OC1(C[C@@H]2CCCN3CCCC[C@H]23)c2ccccc2Sc2ccccc21` yielded an IC50 of 950 nM.
Same read-out and setting: under `N#Cc1ccc2c(c1)N(CCCN1CCC(O)CC1)c1ccccc1S2` [PERICIAZINE] stands 230 nM; under `O=c1ccc2cc(OCCCCCSC[C@@H]3CCCN4CCCC[C@H]34)ccc2o1`, 5800 nM; under `COc1ccc2nc3cc(Cl)ccc3c(SC[C@@H]3CCCN4CCCC[C@H]34)c2c1`, 4700 nM.
As to `c1ccc(C(C[C@@H]2CCCN3CCCC[C@H]23)c2ccccc2)cc1`, half-maximal inhibition (IC50) required 5500 nM.
Same read-out and setting: under `CCN(CC)C(C)C(=O)N1c2ccccc2Sc2ccccc21` (stereo unspecified) stands 840 nM.
On the same count and under the same terms, under `c1ccc2c(c1)CCc1ccccc1N2CSC[C@@H]1CCCN2CCCC[C@H]12` stands 860 nM; under `O=c1ccc2cc(OCCCSC[C@@H]3CCCN4CCCC[C@H]34)ccc2o1`, 5400 nM.
Same read-out and setting: under `CC(SC[C@@H]1CCCN2CCCC[C@H]12)C(=O)N1c2ccccc2Sc2ccccc21` (stereo partly specified) stands 470 nM; under `c1ccc2c(c1)Cc1ccccc1N2C[C@@H]1CCCN2CCCC[C@H]12`, 1400 nM; under `COc1ccc2nc3cc(Cl)ccc3c(NCCCSC[C@@H]3CCCN4CCCC[C@H]34)c2c1`, 690 nM.
On to `c1ccc2c(c1)-c1ccccc1C2C[C@H]1CCCN2CCCC[C@H]12`, for which half-maximal inhibition (IC50) was put at 1100 nM.
Still for that read-out and setting: under `FC(F)(F)c1ccc2c(c1)N(C[C@@H]1CCCN3CCCC[C@H]13)c1ccccc1S2` stands 4000 nM; under `c1ccc2c(c1)CCc1ccccc1N2C[C@@H]1CCCN2CCCC[C@H]12`, 2200 nM.
Still for that read-out and setting: as for `C(=C1c2ccccc2Sc2ccccc21)[C@@H]1CCCN2CCCC[C@H]12`, the figure is 930 nM; as for `c1ccc(C(SC[C@@H]2CCCN3CCCC[C@H]23)c2ccccc2)cc1`, 3300 nM.
Same read-out and setting: as for `COc1ccc2nc3cc(Cl)ccc3c(NCCSC[C@@H]3CCCN4CCCC[C@H]34)c2c1`, the figure is 340 nM.
As to `O=C(CCCSC[C@@H]1CCCN2CCCC[C@H]12)N1c2ccccc2Sc2ccccc21`, the 50% inhibitory concentration (IC50) was found to be 740 nM.
The same measure, in the same setting: as for `c1ccc2c(c1)Sc1ccccc1N2C1CN2CCC1CC2` (stereo unspecified), the figure is 3000 nM.
